Reference: US12371454B2, “Cyclic peptide compound having Kras inhibitory action” (priority 2019, dated 2025)
Starred links: 1 amine or outer side, 2 acyl side, 3 side chain; linkers in the order of their positions; H or OH if unused. Positions of bridges follow the written chain, without caps; N, C: chain ends. Non-standard residues stand in square brackets, D forms with d. Residues, ends and D or L forms follow the SMILES beside them. *: point of attachment. hPhe(3-Cl-4-CF3) = N[C@@H](CCc1ccc(C(F)(F)F)c(Cl)c1)C(=O)O; hPhe(3-F,4-CF3) = N[C@@H](CCc1ccc(C(F)(F)F)c(F)c1)C(=O)O; NMePhe(4-CF3) = CN[C@@H](Cc1ccc(C(F)(F)F)cc1)C(=O)O; Phe(3,5-Cl2) = N[C@@H](Cc1cc(Cl)cc(Cl)c1)C(=O)O; NMeAbu(4,4,4-F3) = CN[C@@H](CC(F)(F)F)C(=O)O; NMePhe(4-Cl) = CN[C@@H](Cc1ccc(Cl)cc1)C(=O)O; X35 = CN([C@@](C)(Cc1ccccc1)C(=O)[*:2])[*:1]; NMePhe(4-Me) = CN[C@@H](Cc1ccc(C)cc1)C(=O)O; NMeGly(cPent) = CN[C@H](C(=O)O)C1CCCC1; Phe(3-I) = N[C@@H](Cc1cccc(I)c1)C(=O)O; NMeY = CN[C@@H](Cc1ccc(O)cc1)C(=O)O; NMeCha = CN[C@@H](CC1CCCCC1)C(=O)O; NMeGly(cPr) = CN[C@H](C(=O)O)C1CC1; Hyp = O=C(O)[C@@H]1C[C@@H](O)CN1; NEtLeu = CCN[C@@H](CC(C)C)C(=O)O; NMeChg = CN[C@H](C(=O)O)C1CCCCC1; NMeI = CC[C@H](C)[C@H](NC)C(=O)O; NMeT = CN[C@H](C(=O)O)[C@@H](C)O; NMeD = CN[C@@H](CC(=O)O)C(=O)O; NMeL = CN[C@@H](CC(C)C)C(=O)O; αMeL = CC(C)C[C@](C)(N)C(=O)O; NMeV = CN[C@H](C(=O)O)C(C)C; d(β3hA) = C[C@@H](N)CC(=O)O; Morpholide = C1CN(*)CCO1; NMeA = CN[C@@H](C)C(=O)O; NMeAib = CNC(C)(C)C(=O)O; Nle = CCCC[C@H](N)C(=O)O; Piperidide = C1CCN(*)CC1; Pyrrolidide = C1CCN(*)C1; Ac5c = NC1(C(=O)O)CCCC1; Aze = O=C(O)[C@@H]1CCN1; Sar = CNCC(=O)O

What follows are compounds tested against T1, Kras and SOS1 (biotin-tagged human Kras loaded with GDP, His-tagged human SOS1) (Homo sapiens, UniProt P01116, G12D) (assay: Protein-protein interaction inhibition between Kras and SOS1 (KrasGl2D-SOS PPI) using AlphaScreen). Settings: AlphaScreen; biotin-tagged human Kras loaded with GDP, His-tagged human SOS1; read-out: KRAS G12D-SOS PPI IC50.
T1 construct: made in house; host or cells: E. coli (stated for Kras only)
T1 sequence (P01116 1-188 isoform P01116-2 G12D): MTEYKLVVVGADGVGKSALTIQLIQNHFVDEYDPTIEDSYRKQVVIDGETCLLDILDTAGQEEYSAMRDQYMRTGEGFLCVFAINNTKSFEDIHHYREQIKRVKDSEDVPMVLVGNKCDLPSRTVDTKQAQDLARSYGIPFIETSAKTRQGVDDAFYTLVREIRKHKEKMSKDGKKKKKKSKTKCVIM
Assay type: binding
Outline: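 Kras was produced in E. coli, purified, then loaded with GDP. It was paired via streptavidin acceptor beads with His-SOS1 held on nickel donor beads, and proximity signal at 520-620 nm was read after 680 nm illumination.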

Compound	IC50
CC[C@H](C)[C@@H]1NC(=O)[C@H](CC(C)C)N(CC)C(=O)C[C@@H](C(=O)N(C)C)N(C)C(=O)[C@H](C2CCCC2)N(C)C(=O)C2(CCCC2)NC(=O)[C@@H]2CCCN2C(=O)[C@H](CCc2ccc(C(F)(F)F)c(F)c2)NC(=O)CN(C)C(=O)[C@H](CC2CCCCC2)N(C)C(=O)[C@@H]2CCN2C(=O)[C@H](C)N(C)C1=O [Compound 1324] ([NEtLeu]I[NMeA][Aze][NMeCha][Sar][hPhe(3-F,4-CF3)]P[Ac5c][NMeGly(cPent)][NMeD]-NMe2; lactam N-11)	1.2 nM
CCCC[C@@H]1NC(=O)[C@H](Cc2cc(Cl)cc(Cl)c2)NC(=O)CN(C)C(=O)[C@H](Cc2ccc(Cl)cc2)N(C)C(=O)CN(C)C(=O)CN(C)C(=O)[C@H]([C@@H](C)CC)NC(=O)[C@H](CC(C)C)N(C)C(=O)C[C@@H](C(=O)N2CCCCC2)N(C)C(=O)[C@H](CC(C)C)NC(=O)C(C)(C)N(C)C1=O [Compound 431] ([NMeL]I[Sar][Sar][NMePhe(4-Cl)][Sar][Phe(3,5-Cl2)][Nle][NMeAib]L[NMeD]-Piperidide; lactam N-11)	250 nM
CCO[C@@H]1C[C@H]2C(=O)NC3(CCCC3)C(=O)N(C)[C@@H](C3CCCCC3)C(=O)N(C)[C@H](C(=O)N3CCCC3)CC(=O)N(C)[C@@H](CC(F)(F)F)C(=O)N[C@@H]([C@@H](C)CC)C(=O)N(C)CC(=O)N(C)CC(=O)N(C)[C@@H](Cc3ccc(C(F)(F)F)cc3)C(=O)N(C)CC(=O)N[C@@H](CCc3ccc(C(F)(F)F)c(Cl)c3)C(=O)N2C1 [Compound 1139] ([NMeAbu(4,4,4-F3)]I[Sar][Sar][NMePhe(4-CF3)][Sar][hPhe(3-Cl-4-CF3)][Hyp](Et)[Ac5c][NMeChg][NMeD]-Pyrrolidide; lactam N-11)	0.59 nM
CC[C@H](C)[C@@H]1NC(=O)[C@H](CC(C)C)N(C)C(=O)C[C@@H](C)NC(=O)[C@H](C(C)C)N(C)C(=O)[C@](C)(CC(C)C)NC(=O)[C@@H]2CCCN2C(=O)[C@H](CCc2ccc(C(F)(F)F)c(Cl)c2)NC(=O)CN(C)C(=O)[C@H](CC2CCCCC2)N(C)C(=O)CN(C)C(=O)CN(C)C1=O [Compound 705] (cyclo(I[Sar][Sar][NMeCha][Sar][hPhe(3-Cl-4-CF3)]P[αMeL][NMeV][d(β3hA)][NMeL]))	360 nM
CC[C@H](C)[C@@H]1NC(=O)[C@H](CC(C)C)N(C)C(=O)C[C@@H](C(=O)N2CCCCC2)N(C)C(=O)[C@H](C2CCCCC2)N(C)C(=O)C2(CCCC2)NC(=O)[C@@H]2CCCN2C(=O)[C@H](CCc2ccc(C(F)(F)F)c(Cl)c2)NC(=O)CN(C)C(=O)[C@H]([C@@H](C)O)N(C)C(=O)CN(C)C(=O)CN(C)C1=O [Compound 427] ([NMeL]I[Sar][Sar][NMeT][Sar][hPhe(3-Cl-4-CF3)]P[Ac5c][NMeChg][NMeD]-Piperidide; lactam N-11)	0.71 nM
CCCC[C@@H]1NC(=O)[C@H](Cc2cccc(I)c2)NC(=O)CN(C)C(=O)[C@H](Cc2ccc(OC)cc2)N(C)C(=O)[C@@H]2CCN2C(=O)CN(C)C(=O)[C@H]([C@@H](C)CC)NC(=O)[C@H](CC(C)C)N(C)C(=O)C[C@@H](C(=O)N2CCCCC2)N(C)C(=O)[C@H](CC(C)C)NC(=O)[C@](C)(Cc2ccccc2)N(C)C1=O [Compound 1058] ([NMeL]I[Sar][Aze][NMeY](Me)[Sar][Phe(3-I)][Nle][X35]L[NMeD]-Piperidide; lactam N-11)	14 nM
CC[C@H](C)[C@@H]1NC(=O)[C@H](CC(C)C)N(C)C(=O)C[C@@H](C(=O)N2CCOCC2)NC(=O)[C@H]([C@@H](C)CC)N(C)C(=O)C2(CCCC2)NC(=O)[C@@H]2CCCN2C(=O)[C@H](CCc2ccc(C(F)(F)F)c(Cl)c2)NC(=O)CN(C)C(=O)[C@H](CC2CCCCC2)N(C)C(=O)CN(C)C(=O)CN(C)C1=O [Compound 1277] ([NMeL]I[Sar][Sar][NMeCha][Sar][hPhe(3-Cl-4-CF3)]P[Ac5c][NMeI]D-Morpholide; lactam N-11)	6.7 nM
CC[C@H](C)[C@@H]1NC(=O)[C@H](CC(C)C)N(C)C(=O)C[C@@H](C)NC(=O)[C@H](C2CC2)N(C)C(=O)C2(CCCC2)NC(=O)[C@@H]2CCCN2C(=O)[C@H](CCc2ccc(C(F)(F)F)c(Cl)c2)NC(=O)CN(C)C(=O)[C@H](CC2CCCCC2)N(C)C(=O)CN(C)C(=O)CN(C)C1=O [Compound 14] (cyclo([Ac5c][NMeGly(cPr)][d(β3hA)][NMeL]I[Sar][Sar][NMeCha][Sar][hPhe(3-Cl-4-CF3)]P))	110 nM
CC[C@H](C)[C@@H]1NC(=O)[C@H](CC(C)C)N(C)C(=O)C[C@@H](C)NC(=O)[C@H](C2CCCCC2)N(C)C(=O)C2(CCCC2)NC(=O)[C@@H]2CCCN2C(=O)[C@H](CCc2ccc(C(F)(F)F)c(Cl)c2)NC(=O)CN(C)C(=O)[C@H](Cc2ccc(C)cc2)N(C)C(=O)CN(C)C(=O)CN(C)C1=O [Compound 1856] (cyclo([Ac5c][NMeChg][d(β3hA)][NMeL]I[Sar][Sar][NMePhe(4-Me)][Sar][hPhe(3-Cl-4-CF3)]P))	5.4 nM
